Reference: ChEMBL document CHEMBL6078693, “Move over COVID, Tuberculosis Is Once again the Leading Cause of Death from a Single Infectious Disease” (J Med Chem, 2024)
Values after ≈ are worked out from the molar mass of the structure shown.

What was measured:
[1] = system: Mycobacterium tuberculosis; assay: Antimycobacterial activity against Mycobacterium tuberculosis H37Rv assessed as reduction in bacterial growth incubated for 7 days by resazurin dye based assay; format: functional; settings: 168 h, time 7 day
[2] = system: Mycobacterium tuberculosis; assay: Antimycobacterial activity against Mycobacterium tuberculosis; format: functional, organism-based

NC[C@H]1OB(O)c2c(OCCO)ccc(Cl)c21 [GANFEBOROLE]
MIC [1]: 0.08 µM (≈ 0.0206 µg/mL) | IC50 [2]: 0.2 µM
